Experiments:
[1] = tested on: male rats weighing 300 and having hypertension; test: Systolic blood pressure decrease by the optically active enantiomers in hypertensive rats; assay type: in vivo; settings: intraperitoneal 20 mg/kg, sixth hour following administration (maximum of the effect)
Protocol: The tests were carried. out on CFY strain male rats weighing 250-300 g. The systolic blood pressure was measured indirectly on the tails of the animals pressed down with the aid. of a cuff. When the pressure of the pressing cuff attached to a mercury manometer decreased just under the systolic pressure, the sensing head of the measuring apparatus (VP 101 microphone adapted for this purpose and placed on the tails of the rats) signalled the appearence of arterial pulsation both in acustical and visual way (oscilloscope). The systolic blood pressure was determined by observing simultaneously the manometer and the out-signal. When administering the raoemic compound intraperitoneally in doses of 10 and. […] The characteristics of the hypotensive effect of reserpine used as control are substantially the same as those of the racemic compound; hypotension of approximately the same intensity and duration can be achieved by administering 2,5 mg/kg of reserpine and 20 mg/kg of the racemic compound, respectively.
The optically active enantiomers were administered in intraperitoneal doses of 20 mg/kg to male rats weighing 300 and having hypertension. […]

[2] = tested on: CFLP strain female mice; settings: mouse, in vivo
Protocol: These tests were carried out on CFLP strain female mice weighing 20-25 g by the rotating rod method [A. Kovach: Testing methods of experimental medical sciences - A kisérletes orvostudomany vizsgáló m6dszerei - Akad6mia kiad6, Budapest, VI. 232-233, 1962)].

[3] = tested on: CFY strain male rats; test: Systolic blood pressure of non-anaesthetized rats, measured indirectly on the tail with a cuff; assay type: in vivo; settings: for Blood pressure change related to the starting (control) value, 3rd hour / Blood pressure change related to the starting (control) value, 6th hour / Blood pressure change related to the starting (control) value, 12th hour / Blood pressure change related to the starting (control) value, 18th hour / Blood pressure change related to the starting (control) value, 24th hour / Blood pressure change related to the starting (control) value, 48th hour: n 5; for dose achieving hypotension of approximately the same intensity and duration: comparison of reserpine and the racemic compound, i.p.
Protocol: The tests were carried. out on CFY strain male rats weighing 250-300 g. The systolic blood pressure was measured indirectly on the tails of the animals pressed down with the aid. of a cuff. […] The systolic blood pressure was determined by observing simultaneously the manometer and the out-signal.

[4] = 2,5 mg/kg i.p., n 5, control 117 ± 2
[5] = 5,0 mg/kg i.p., n 5, control 118 ± 2
[6] = 10 mg/kg i.p., n 5, control 115 ± 2
[7] = 20 mg/kg i.p., n 5, control 116 ± 2
[8] = intraperitoneally 10 and 20 mg/kg

## (-)-Methyl-7,8-methylenedioxy-15-(3,4,5--trimethoxy-benzoyloxy)-14-oxo-epiallo--berbane-13-carboxylate [[(-), I]]
[1]
  blood-pressure decrease (average, n = 6): 14,8 Hgmm

## COC(=O)[C@H]1[C@H]2C[C@@H]3c4[nH]c5cc(OC)ccc5c4CCN3C[C@H]2C[C@@H](OC(=O)c2cc(OC)c(OC)c(OC)c2)[C@@H]1OC [RESERPINE, reserpine, reference compound]
[2]
  Time for which mice stayed on the rotating rod (average, n = 10): 9 ± 3,3
  effect on coordination: roduced coordination to a very significatn extent
[3]; 2,5 mg/kg i.p.
  Blood pressure change related to the starting (control) value, 3rd hour: -11,11%
  Blood pressure change related to the starting (control) value, 6th hour: -18,8%
  Blood pressure change related to the starting (control) value, 12th hour: -9,4%
  Blood pressure change related to the starting (control) value, 18th hour: -12,82%
  Blood pressure change related to the starting (control) value, 24th hour: -10,26%
  Blood pressure change related to the starting (control) value, 48th hour: -6,48%
[3]; [4]
  Blood pressure (Hgmm; x̄ ± S.E.) 3rd hour: 104 ± 2 Hgmm
  Blood pressure (Hgmm; x̄ ± S.E.) 6th hour: 95 ± 2 Hgmm
  Blood pressure (Hgmm; x̄ ± S.E.) 12th hour: 106 ± 2 Hgmm
  Blood pressure (Hgmm; x̄ ± S.E.) 18th hour: 102 ± 1 Hgmm
  Blood pressure (Hgmm; x̄ ± S.E.) 24th hour: 105 ± 3 Hgmm
  Blood pressure (Hgmm; x̄ ± S.E.) 48th hour: 109 ± 2 Hgmm
[3]; 5,0 mg/kg i.p.
  Blood pressure change related to the starting (control) value, 3rd hour: -15,25%
  Blood pressure change related to the starting (control) value, 6th hour: -19,49%
  Blood pressure change related to the starting (control) value, 12th hour: -13,56%
  Blood pressure change related to the starting (control) value, 18th hour: -8,47%
  Blood pressure change related to the starting (control) value, 24th hour: -10,17%
  Blood pressure change related to the starting (control) value, 48th hour: -5.93%
[3]; [5]
  Blood pressure (Hgmm; x̄ ± S.E.) 3rd hour: 100 ± 5 Hgmm
  Blood pressure (Hgmm; x̄ ± S.E.) 6th hour: 95 ± 7 Hgmm
  Blood pressure (Hgmm; x̄ ± S.E.) 12th hour: 102 ± 1 Hgmm
  Blood pressure (Hgmm; x̄ ± S.E.) 18th hour: 108 ± 2 Hgmm
  Blood pressure (Hgmm; x̄ ± S.E.) 24th hour: 106 ± 3 Hgmm
  Blood pressure (Hgmm; x̄ ± S.E.) 48th hour: 111 ± 2 Hgmm
[3]
  dose achieving hypotension of approximately the same intensity and duration: 2,5 mg/kg

## COC(=O)[C@H]1C(=O)[C@@H](OC(=O)c2cc(OC)c(OC)c(OC)c2)C[C@@H]2CN3CCc4cc5c(cc4[C@H]3C[C@@H]21)OCO5 (racemic) [SC-T 40, Racemic methyl-7,8-methylened.ioxy-15-(3,4,5--trimethoxy-benzoyloxy)-14-oxo-epiallo--berbane-13-carboxylate]
[2]
  Time for which mice stayed on the rotating rod (average, n = 10): 102 ± 12,0
  effect on coordination: did not exhibit any effect on coordination
[3]; 10 mg/kg i.p.
  Blood pressure change related to the starting (control) value, 3rd hour: -4,23%
  Blood pressure change related to the starting (control) value, 6th hour: -13,88%
  Blood pressure change related to the starting (control) value, 12th hour: -12,14%
  Blood pressure change related to the starting (control) value, 18th hour: -9,53%
  Blood pressure change related to the starting (control) value, 24th hour: -9,64%
  Blood pressure change related to the starting (control) value, 48th hour: -9,53%
[3]; [6]
  Blood pressure (Hgmm; x̄ ± S.E.) 3rd hour: 110 ± 2 Hgmm
  Blood pressure (Hgmm; x̄ ± S.E.) 6th hour: 99 ± 3 Hgmm
  Blood pressure (Hgmm; x̄ ± S.E.) 12th hour: 101 ± 2 Hgmm
  Blood pressure (Hgmm; x̄ ± S.E.) 18th hour: 104 ± 2 Hgmm
  Blood pressure (Hgmm; x̄ ± S.E.) 24th hour: 104 ± 4 Hgmm
  Blood pressure (Hgmm; x̄ ± S.E.) 48th hour: 104 ± 2 Hgmm
[3]; 20 mg/kg i.p.
  Blood pressure change related to the starting (control) value, 3rd hour: -7,98%
  Blood pressure change related to the starting (control) value, 6th hour: -19,53%
  Blood pressure change related to the starting (control) value, 12th hour: -17,11%
  Blood pressure change related to the starting (control) value, 18th hour: -12,76%
  Blood pressure change related to the starting (control) value, 24th hour: -9,42%
  Blood pressure change related to the starting (control) value, 48th hour: -4,23%
[3]; [7]
  Blood pressure (Hgmm; x̄ ± S.E.) 3rd hour: 107 ± 2 Hgmm
  Blood pressure (Hgmm; x̄ ± S.E.) 6th hour: 93 ± 6 Hgmm
  Blood pressure (Hgmm; x̄ ± S.E.) 12th hour: 96 ± 2 Hgmm
  Blood pressure (Hgmm; x̄ ± S.E.) 18th hour: 101 ± 3 Hgmm
  Blood pressure (Hgmm; x̄ ± S.E.) 24th hour: 105 ± 2 Hgmm
  Blood pressure (Hgmm; x̄ ± S.E.) 48th hour: 111 ± 1 Hgmm
[3]
  dose achieving hypotension of approximately the same intensity and duration: 20 mg/kg
[3]; [8]
  duration of the hypotensive effect: still detected in the 48th hour
  time at which the hypotensive effect reached its maximum: sixth hour
[3]; intraperitoneally 10 and 20 mg/kg, 3-6 hours after the administration
  hypotensive effect: significant hypotensive effect

## (+)-Methyl-7,8-methylenedioxy-15-(3,4,5--trimethoxy-benzoyloxy)-l4-oxo-epiallo--berbane-13-carboxylate [[(+), I]]
[1]
  blood-pressure decrease (average, n = 6): 15,6 Hgmm

From EP0091185A2, “Berbane derivatives” (CHINOIN Gyogyszer és Vegyészeti Termékek Gyára RT., priority 1982, dated 1983)
